Experimental data published in ChEMBL document CHEMBL1649268, “Comparative in vitro activity profile of oritavancin against recent gram-positive clinical isolates” (2009).
In brackets after ≈: the same amount, converted by molar mass.

How the values were obtained:
[1] = Antimicrobial activity against erythromycin-susceptible Streptococcus Group C clinical isolates assessed as percent susceptible isolates by broth microdilution method; assay type: functional, Streptococcus sp. 'group C'
[2] = Antimicrobial activity against erythromycin-nonsusceptible Streptococcus Group C clinical isolates assessed as resistant isolates by broth microdilution method; assay type: functional, Streptococcus sp. 'group C'
[3] = Antimicrobial activity against erythromycin-susceptible Streptococcus Group G clinical isolates assessed as percent susceptible isolates by broth microdilution method; assay type: functional, Streptococcus sp. 'group G'
[4] = system: Streptococcus pyogenes; assay: Antimicrobial activity against erythromycin-susceptible Streptococcus pyogenes clinical isolates by broth microdilution method; assay type: functional
[5] = system: Streptococcus pyogenes; assay: Antimicrobial activity against erythromycin-susceptible Streptococcus pyogenes clinical isolates assessed as resistant isolates by broth microdilution method; assay type: functional
[6] = system: Streptococcus pyogenes; assay: Antimicrobial activity against erythromycin-susceptible Streptococcus pyogenes clinical isolates assessed as percent susceptible isolates by broth microdilution method; assay type: functional
[7] = system: Streptococcus pyogenes; assay: Antimicrobial activity against Streptococcus pyogenes clinical isolates assessed as resistant isolates by broth microdilution method; assay type: functional
[8] = system: Streptococcus pneumoniae; assay: Antimicrobial activity against penicillin-susceptible Streptococcus pneumoniae clinical isolates assessed as percent susceptible isolates by broth microdilution method; assay type: functional
[9] = system: Streptococcus; assay: Antimicrobial activity against erythromycin-nonsusceptible Streptococcus Group F clinical isolates assessed as resistant isolates by broth microdilution method; assay type: functional
[10] = Antimicrobial activity against erythromycin-nonsusceptible Streptococcus Group G clinical isolates by broth microdilution method; assay type: functional; settings: Streptococcus sp. 'group G'
[11] = system: Streptococcus agalactiae; assay: Antimicrobial activity against erythromycin-nonsusceptible Streptococcus agalactiae clinical isolates assessed as resistant isolates by broth microdilution method; assay type: functional
[12] = Antimicrobial activity against Streptococcus Group G clinical isolates assessed as percent susceptible isolates by broth microdilution method; assay type: functional, Streptococcus sp. 'group G'
[13] = system: Streptococcus pneumoniae; assay: Antimicrobial activity against penicillin-resistant Streptococcus pneumoniae clinical isolates by broth microdilution method; assay type: functional
[14] = system: Streptococcus pneumoniae; assay: Antimicrobial activity against penicillin-intermediate Streptococcus pneumoniae clinical isolates by broth microdilution method; assay type: functional
[15] = Antimicrobial activity against Streptococcus Group G clinical isolates by broth microdilution method; assay type: functional; settings: Streptococcus sp. 'group G'
[16] = system: Streptococcus agalactiae; assay: Antimicrobial activity against Streptococcus agalactiae clinical isolates by broth microdilution method; assay type: functional
[17] = system: Streptococcus; assay: Antimicrobial activity against erythromycin-susceptible Streptococcus Group F clinical isolates assessed as percent susceptible isolates by broth microdilution method; assay type: functional
[18] = system: Streptococcus; assay: Antimicrobial activity against erythromycin-nonsusceptible Streptococcus Group F clinical isolates assessed as percent susceptible isolates by broth microdilution method; assay type: functional
[19] = system: Streptococcus pyogenes; assay: Antimicrobial activity against Streptococcus pyogenes clinical isolates assessed as percent susceptible isolates by broth microdilution method; assay type: functional
[20] = Antimicrobial activity against erythromycin-nonsusceptible Streptococcus Group G clinical isolates assessed as resistant isolates by broth microdilution method; assay type: functional, Streptococcus sp. 'group G'
[21] = system: Streptococcus pyogenes; assay: Antimicrobial activity against erythromycin-nonsusceptible Streptococcus pyogenes clinical isolates assessed as resistant isolates by broth microdilution method; assay type: functional
[22] = system: Streptococcus; assay: Antimicrobial activity against erythromycin-nonsusceptible Streptococcus Group F clinical isolates by broth microdilution method; assay type: functional
[23] = Antimicrobial activity against erythromycin-susceptible Streptococcus Group C clinical isolates by broth microdilution method; assay type: functional; settings: Streptococcus sp. 'group C'
[24] = Antimicrobial activity against Streptococcus Group C clinical isolates assessed as percent susceptible isolates by broth microdilution method; assay type: functional, Streptococcus sp. 'group C'
[25] = system: Streptococcus; assay: Antimicrobial activity against erythromycin-susceptible Streptococcus Group F clinical isolates assessed as resistant isolates by broth microdilution method; assay type: functional
[26] = Antimicrobial activity against erythromycin-susceptible Streptococcus Group C clinical isolates assessed as resistant isolates by broth microdilution method; assay type: functional, Streptococcus sp. 'group C'
[27] = system: Streptococcus agalactiae; assay: Antimicrobial activity against Streptococcus agalactiae clinical isolates assessed as percent susceptible isolates by broth microdilution method; assay type: functional
[28] = system: Streptococcus; assay: Antimicrobial activity against Streptococcus Group F clinical isolates by broth microdilution method; assay type: functional
[29] = system: Streptococcus agalactiae; assay: Antimicrobial activity against erythromycin-susceptible Streptococcus agalactiae clinical isolates assessed as resistant isolates by broth microdilution method; assay type: functional
[30] = system: Streptococcus pneumoniae; assay: Antimicrobial activity against Streptococcus pneumoniae clinical isolates assessed as resistant isolates by broth microdilution method; assay type: functional
[31] = Antimicrobial activity against erythromycin-susceptible Streptococcus Group G clinical isolates assessed as resistant isolates by broth microdilution method; assay type: functional, Streptococcus sp. 'group G'
[32] = system: Streptococcus agalactiae; assay: Antimicrobial activity against Streptococcus agalactiae clinical isolates assessed as resistant isolates by broth microdilution method; assay type: functional
[33] = system: Streptococcus; assay: Antimicrobial activity against Streptococcus Group F clinical isolates assessed as resistant isolates by broth microdilution method; assay type: functional
[34] = system: Streptococcus pneumoniae; assay: Antimicrobial activity against penicillin-susceptible Streptococcus pneumoniae clinical isolates by broth microdilution method; assay type: functional
[35] = system: Streptococcus pyogenes; assay: Antimicrobial activity against erythromycin-nonsusceptible Streptococcus pyogenes clinical isolates assessed as percent susceptible isolates by broth microdilution method; assay type: functional
[36] = Antimicrobial activity against erythromycin-susceptible Streptococcus Group G clinical isolates by broth microdilution method; assay type: functional; settings: Streptococcus sp. 'group G'
[37] = system: Streptococcus agalactiae; assay: Antimicrobial activity against erythromycin-nonsusceptible Streptococcus agalactiae clinical isolates by broth microdilution method; assay type: functional
[38] = system: Streptococcus agalactiae; assay: Antimicrobial activity against erythromycin-nonsusceptible Streptococcus agalactiae clinical isolates assessed as percent susceptible isolates by broth microdilution method; assay type: functional
[39] = system: Streptococcus pneumoniae; assay: Antimicrobial activity against penicillin-intermediate Streptococcus pneumoniae clinical isolates assessed as percent susceptible isolates by broth microdilution method; assay type: functional
[40] = Antimicrobial activity against erythromycin-nonsusceptible Streptococcus Group G clinical isolates assessed as percent susceptible isolates by broth microdilution method; assay type: functional, Streptococcus sp. 'group G'
[41] = system: Streptococcus pyogenes; assay: Antimicrobial activity against erythromycin-nonsusceptible Streptococcus pyogenes clinical isolates by broth microdilution method; assay type: functional
[42] = Antimicrobial activity against Streptococcus Group C clinical isolates by broth microdilution method; assay type: functional; settings: Streptococcus sp. 'group C'
[43] = system: Streptococcus pneumoniae; assay: Antimicrobial activity against Streptococcus pneumoniae clinical isolates assessed as percent susceptible isolates by broth microdilution method; assay type: functional
[44] = system: Streptococcus; assay: Antimicrobial activity against Streptococcus Group F clinical isolates assessed as percent susceptible isolates by broth microdilution method; assay type: functional
[45] = Antimicrobial activity against erythromycin-nonsusceptible Streptococcus Group C clinical isolates by broth microdilution method; assay type: functional; settings: Streptococcus sp. 'group C'
[46] = system: Streptococcus pneumoniae; assay: Antimicrobial activity against Streptococcus pneumoniae clinical isolates by broth microdilution method; assay type: functional
[47] = Antimicrobial activity against Streptococcus Group G clinical isolates assessed as resistant isolates by broth microdilution method; assay type: functional, Streptococcus sp. 'group G'
[48] = Antimicrobial activity against erythromycin-nonsusceptible Streptococcus Group C clinical isolates assessed as percent susceptible isolates by broth microdilution method; assay type: functional, Streptococcus sp. 'group C'
[49] = system: Streptococcus pyogenes; assay: Antimicrobial activity against Streptococcus pyogenes clinical isolates by broth microdilution method; assay type: functional
[50] = system: Streptococcus; assay: Antimicrobial activity against erythromycin-susceptible Streptococcus Group F clinical isolates by broth microdilution method; assay type: functional
[51] = system: Streptococcus agalactiae; assay: Antimicrobial activity against erythromycin-susceptible Streptococcus agalactiae clinical isolates assessed as percent susceptible isolates by broth microdilution method; assay type: functional
[52] = Antimicrobial activity against Streptococcus Group C clinical isolates assessed as resistant isolates by broth microdilution method; assay type: functional, Streptococcus sp. 'group C'
[53] = system: Streptococcus agalactiae; assay: Antimicrobial activity against erythromycin-susceptible Streptococcus agalactiae clinical isolates by broth microdilution method; assay type: functional

CC1(C)S[C@@H]2[C@H](NC(=O)Cc3ccccc3)C(=O)N2[C@H]1C(=O)O [PENICILLIN G]
Activity [1]: 100% | Activity [2]: 0% | Activity [3]: 100% | MIC90 [4]: ≤ 0.03 µg/mL | Activity [5]: 0% | Activity [6]: 100% | Activity [7]: 0% | Activity [8]: 100% | Activity [9]: 0% | MIC90 [10]: 0.03 µg/mL (≈ 0.0897 µM) | Activity [11]: 0% | Activity [12]: 100% | MIC90 [13]: 4 µg/mL (≈ 12 µM) | MIC90 [14]: 1 µg/mL (≈ 2.99 µM) | MIC90 [15]: 0.06 µg/mL (≈ 0.179 µM) | MIC90 [16]: 0.06 µg/mL (≈ 0.179 µM) | Activity [17]: 100% | Activity [18]: 100% | Activity [19]: 100% | Activity [20]: 0% | Activity [21]: 0% | MIC90 [22]: 0.03 µg/mL (≈ 0.0897 µM) | MIC90 [23]: 0.06 µg/mL (≈ 0.179 µM) | Activity [24]: 100% | Activity [25]: 0% | Activity [26]: 0% | Activity [27]: 100% | MIC90 [28]: 0.06 µg/mL (≈ 0.179 µM) | Activity [29]: 0% | Resistant isolates [30]: 14.7% | Activity [31]: 0% | Activity [32]: 0% | Activity [33]: 0% | MIC [34]: ≤ 0.03 µg/mL | MIC90 [34]: ≤ 0.03 µg/mL | Activity [35]: 100% | MIC90 [36]: 0.06 µg/mL (≈ 0.179 µM) | MIC90 [37]: 0.06 µg/mL (≈ 0.179 µM) | Activity [38]: 100% | Activity [39]: 0% | Activity [40]: 100% | MIC90 [41]: 0.03 µg/mL (≈ 0.0897 µM) | MIC90 [42]: 0.06 µg/mL (≈ 0.179 µM) | Activity [43]: 64% | Activity [44]: 100% | MIC90 [45]: 0.03 µg/mL (≈ 0.0897 µM) | MIC90 [46]: 2 µg/mL (≈ 5.98 µM) | Activity [47]: 0% | Activity [48]: 100% | MIC90 [49]: ≤ 0.03 µg/mL | MIC90 [50]: 0.06 µg/mL (≈ 0.179 µM) | Activity [51]: 100% | Activity [52]: 0% | MIC90 [53]: 0.06 µg/mL (≈ 0.179 µM)
